Measurements taken from PubChem BioAssay AID1963867 (Molecular Pharmacology Branch, DTP, NCI, 2024).

Tested on: KRAS-mutant PDC tumor spheroid with HUVEC/MSC, viability
Experiment: Anticancer human tumor 327498-153-R-J2-PDC patient-derived uterine carcinosarcoma cell line growth inhibition [KRAS2]
Details: for IC50: curve of first compound; for viability, T/C: stronger effect = lower value
Summary of the method: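 Combination screen of spheroid viability in tumor-cell co-cultures with endothelial (HUVEC) and mesenchymal stem cell stroma. Each agent was tested in half-log dilutions, topping at clinical Cmax or at 10 microM without a known Cmax.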

[1] = second compound 0.1 µM, first compound 0.00316 µM
[2] = second compound 0.1 µM, first compound 0.01 µM
[3] = second compound 0.1 µM, first compound 0.0316 µM
[4] = second compound 0.1 µM, first compound 0.1 µM
[5] = second compound 0.1 µM, first compound 0.316 µM
[6] = second compound 0.1 µM, first compound 1 µM
[7] = second compound 0.316 µM, first compound 0.00316 µM
[8] = second compound 0.316 µM, first compound 0.01 µM
[9] = second compound 0.316 µM, first compound 0.0316 µM
[10] = second compound 0.316 µM, first compound 0.1 µM
[11] = second compound 0.316 µM, first compound 0.316 µM
[12] = second compound 0.316 µM, first compound 1 µM
[13] = second compound 1 µM, first compound 0.00316 µM
[14] = second compound 1 µM, first compound 0.01 µM
[15] = second compound 1 µM, first compound 0.0316 µM
[16] = second compound 1 µM, first compound 0.1 µM
[17] = second compound 1 µM, first compound 0.316 µM
[18] = second compound 1 µM, first compound 1 µM
[19] = second compound 3.16 µM, first compound 0.00316 µM
[20] = second compound 3.16 µM, first compound 0.01 µM
[21] = second compound 3.16 µM, first compound 0.0316 µM
[22] = second compound 3.16 µM, first compound 0.1 µM
[23] = second compound 3.16 µM, first compound 0.316 µM
[24] = second compound 3.16 µM, first compound 1 µM
[25] = second compound 10 µM, first compound 0.00316 µM
[26] = second compound 10 µM, first compound 0.01 µM
[27] = second compound 10 µM, first compound 0.0316 µM
[28] = second compound 10 µM, first compound 0.1 µM
[29] = second compound 10 µM, first compound 0.316 µM
[30] = second compound 10 µM, first compound 1 µM
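Further: spheroids exposed to agents for seven days before reading.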
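Wherever viability, T/C is given: 100% = DMSO vehicle wells so lower means fewer viable cells.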

SMILES | IC50 (second compound 0.1 µM) | IC50 (second compound 0.316 µM) | IC50 (second compound 1 µM) | IC50 (second compound 3.16 µM) | IC50 (second compound 10 µM) | viability, T/C [1] | viability, T/C [2] | viability, T/C [3] | viability, T/C [4] | viability, T/C [5] | viability, T/C [6] | viability, T/C [7] | viability, T/C [9] | viability, T/C [10] | viability, T/C [15] | viability, T/C [16] | viability, T/C [21] | viability, T/C [22] | viability, T/C [27] | viability, T/C [28] | further results
CCN1CCN(Cc2ccc(Nc3ncc(F)c(-c4cc(F)c5nc(C)n(C(C)C)c5c4)n3)nc2)CC1 + CNCc1ccccc1-c1csc(C(C)Nc2nc(C)nc3cc(OC)c(OC)cc23)c1 | 42.9 nM | 13.1 nM | 9.26 nM | < 3.16 nM | < 3.16 nM | 65.2% | 58.8% | 52.9% | 37.5% | 41.7% | 47% | 69.4% | 41.3% | 35.5% | 36.4% | 34.5% | 0.11% | 0.06% | 0.91% | 0.68% | viability, T/C [8]: 52.8%; viability, T/C [11]: 39.6%; viability, T/C [12]: 43.9%; viability, T/C [13]: 72.7%; viability, T/C [14]: 46.9%; viability, T/C [17]: 36.2%; viability, T/C [18]: 21.8%; viability, T/C [19]: 0.58%; viability, T/C [20]: 0.79%; viability, T/C [23]: 0.24%; viability, T/C [24]: 0.25%; viability, T/C [25]: 0.56%; viability, T/C [26]: 0.69%; viability, T/C [29]: 0.69%; viability, T/C [30]: 0.69%
COc1cc2nccc(Oc3ccc(NC(=O)C4(C(=O)Nc5ccc(F)cc5)CC4)cc3)c2cc1OC + CNCc1ccccc1-c1csc(C(C)Nc2nc(C)nc3cc(OC)c(OC)cc23)c1 | 2040 nM | 1910 nM | 1670 nM | < 31.6 nM | < 31.6 nM |  |  | 79.7% | 80.7% | 88.2% | 85.9% |  | 83% | 72.5% | 72.8% | 73.5% | 0.12% | 0.17% | 0.12% | 0.11% | viability, T/C (second compound 0.1 µM, first compound 3.16 µM): 29.3%; viability, T/C (second compound 0.1 µM, first compound 10 µM): 0.95%; viability, T/C [11]: 77.7%; viability, T/C [12]: 73.3%; viability, T/C (second compound 0.316 µM, first compound 3.16 µM): 31.8%; viability, T/C (second compound 0.316 µM, first compound 10 µM): 0.58%; viability, T/C [17]: 69.7%; viability, T/C [18]: 69.5%; viability, T/C (second compound 1 µM, first compound 3.16 µM): 25.8%; viability, T/C (second compound 1 µM, first compound 10 µM): 0.3%; viability, T/C [23]: 1.01%; viability, T/C [24]: 0.1%; viability, T/C (second compound 3.16 µM, first compound 3.16 µM): 0.06%; viability, T/C (second compound 3.16 µM, first compound 10 µM): 0.15%; viability, T/C [29]: 0.34%; viability, T/C [30]: 0.34%; viability, T/C (second compound 10 µM, first compound 3.16 µM): 0.71%; viability, T/C (second compound 10 µM, first compound 10 µM): 0.81%
Cn1ncnc1[C@H]1c2n[nH]c(=O)c3cc(F)cc(c23)N[C@@H]1c1ccc(F)cc1 + CNCc1ccccc1-c1csc(C(C)Nc2nc(C)nc3cc(OC)c(OC)cc23)c1 | 18.4 nM | 10.7 nM | 5.81 nM | < 0.316 nM | < 0.316 nM | 81.6% | 62.9% | 38% | 19.7% |  |  | 61.7% | 28.2% | 19.9% | 30.9% | 21.7% | 0.06% | 0.15% | 0.16% | 0.34% | viability, T/C (second compound 0.1 µM, first compound 0.000316 µM): 84%; viability, T/C (second compound 0.1 µM, first compound 0.001 µM): 81.7%; viability, T/C (second compound 0.316 µM, first compound 0.000316 µM): 72.8%; viability, T/C (second compound 0.316 µM, first compound 0.001 µM): 70.2%; viability, T/C [8]: 54.4%; viability, T/C (second compound 1 µM, first compound 0.000316 µM): 63.2%; viability, T/C (second compound 1 µM, first compound 0.001 µM): 68.8%; viability, T/C [13]: 53.7%; viability, T/C [14]: 44.5%; viability, T/C (second compound 3.16 µM, first compound 0.000316 µM): 0.09%; viability, T/C (second compound 3.16 µM, first compound 0.001 µM): 0.09%; viability, T/C [19]: 0.1%; viability, T/C [20]: 0.07%; viability, T/C (second compound 10 µM, first compound 0.000316 µM): 0.12%; viability, T/C (second compound 10 µM, first compound 0.001 µM): 0.11%; viability, T/C [25]: 0.12%; viability, T/C [26]: 0.12%
